In ChEMBL document CHEMBL4507264, “Data for DCP probe BAY-7598” (2021):

How the values were obtained:
[1] = molecular target: Serine/threonine-protein kinase tousled-like 2 (Homo sapiens) (UniProt Q86UE8); details: Compound concentration 1000.0 nM
[2] = tested on: Receptor-type tyrosine-protein kinase FLT3 (Homo sapiens), P36888 [N841I]; details: Compound concentration 1000.0 nM
[3] = molecular target: Cyclin-dependent kinase 11B (Homo sapiens) (UniProt P21127); details: Compound concentration 1000.0 nM
[4] = molecular target: Inhibitor of nuclear factor kappa-B kinase subunit alpha (Homo sapiens) (UniProt O15111); details: Compound concentration 1000.0 nM
[5] = molecular target: Tyrosine-protein kinase CSK (Homo sapiens) (UniProt P41240); details: Compound concentration 1000.0 nM
[6] = molecular target: Tyrosine-protein kinase Srms (Homo sapiens) (UniProt Q9H3Y6); details: Compound concentration 1000.0 nM
[7] = molecular target: cGMP-dependent protein kinase 2 (Homo sapiens) (UniProt Q13237); details: Compound concentration 1000.0 nM
[8] = molecular target: Serine/threonine-protein kinase Sgk2 (Homo sapiens) (UniProt Q9HBY8); details: Compound concentration 1000.0 nM
[9] = molecular target: Wee1-like protein kinase (Homo sapiens) (UniProt P30291); details: Compound concentration 1000.0 nM
[10] = molecular target: Mitogen-activated protein kinase kinase kinase kinase 1 (Homo sapiens) (UniProt Q92918); details: Compound concentration 1000.0 nM
[11] = molecular target: Cyclin-dependent kinase-like 2 (Homo sapiens) (UniProt Q92772); details: Compound concentration 1000.0 nM
[12] = molecular target: Phosphatidylinositol 3-kinase catalytic subunit type 3 (Homo sapiens) (UniProt Q8NEB9); details: Compound concentration 1000.0 nM
[13] = molecular target: Serine/threonine-protein kinase SIK1 (Homo sapiens) (UniProt P57059); details: Compound concentration 1000.0 nM
[14] = molecular target: Calcium/calmodulin-dependent protein kinase kinase 1 (Homo sapiens) (UniProt Q8N5S9); details: Compound concentration 1000.0 nM
[15] = molecular target: Bone morphogenetic protein receptor type-1A (Homo sapiens) (UniProt P36894); details: Compound concentration 1000.0 nM
[16] = molecular target: Aurora kinase A (Homo sapiens) (UniProt O14965); details: Compound concentration 1000.0 nM
[17] = molecular target: Insulin-like growth factor 1 receptor (Homo sapiens) (UniProt P08069); details: Compound concentration 1000.0 nM
[18] = molecular target: Mitogen-activated protein kinase kinase kinase 5 (Homo sapiens) (UniProt Q99683); details: Compound concentration 1000.0 nM
[19] = molecular target: Serine/threonine-protein kinase BRSK2 (Homo sapiens) (UniProt Q8IWQ3); details: Compound concentration 1000.0 nM
[20] = tested on: Receptor-type tyrosine-protein kinase FLT3 (Homo sapiens), P36888 [D835V]; details: Compound concentration 1000.0 nM
[21] = molecular target: Phosphatidylinositol 4,5-bisphosphate 3-kinase catalytic subunit alpha isoform (Homo sapiens) (UniProt P42336); details: Compound concentration 1000.0 nM
[22] = molecular target: 5-hydroxytryptamine receptor 1B (Homo sapiens) (UniProt P28222); details: Compound concentration 10.0 uM
[23] = molecular target: TGF-beta receptor type-1 (Homo sapiens) (UniProt P36897); details: Compound concentration 1000.0 nM
[24] = molecular target: Mitogen-activated protein kinase 8 (Homo sapiens) (UniProt P45983); details: Compound concentration 1000.0 nM
[25] = tested on: Receptor-type tyrosine-protein kinase FLT3 (Homo sapiens), P36888 [R834Q]; details: Compound concentration 1000.0 nM
[26] = molecular target: Cyclin-dependent kinase 8 (Homo sapiens) (UniProt P49336); details: Compound concentration 1000.0 nM
[27] = molecular target: Calcium/calmodulin-dependent protein kinase type 1D (Homo sapiens) (UniProt Q8IU85); details: Compound concentration 1000.0 nM
[28] = molecular target: Leukocyte tyrosine kinase receptor (Homo sapiens) (UniProt P29376); details: Compound concentration 1000.0 nM
[29] = molecular target: Mitogen-activated protein kinase kinase kinase 3 (Homo sapiens) (UniProt Q99759); details: Compound concentration 1000.0 nM
[30] = molecular target: Bone morphogenetic protein receptor type-1B (Homo sapiens) (UniProt O00238); details: Compound concentration 1000.0 nM
[31] = tested on: Fibroblast growth factor receptor 3 (Homo sapiens), P22607 [G697C]; details: Compound concentration 1000.0 nM
[32] = molecular target: Mitotic checkpoint serine/threonine-protein kinase BUB1 (Homo sapiens) (UniProt O43683); details: Compound concentration 1000.0 nM
[33] = molecular target: D(3) dopamine receptor (Homo sapiens) (UniProt P35462); details: Compound concentration 10.0 uM
[34] = molecular target: Serine/threonine-protein kinase WNK1 (Homo sapiens) (UniProt Q9H4A3); details: Compound concentration 1000.0 nM
[35] = molecular target: 5-hydroxytryptamine receptor 7 (Homo sapiens) (UniProt P34969); details: Compound concentration 10.0 uM
[36] = molecular target: Serine/threonine-protein kinase PLK1 (Homo sapiens) (UniProt P53350); details: Compound concentration 1000.0 nM
[37] = tested on: Receptor-type tyrosine-protein kinase FLT3 (Homo sapiens), P36888 [D835Y]; details: Compound concentration 1000.0 nM
[38] = tested on: Leucine-rich repeat serine/threonine-protein kinase 2 (Homo sapiens), Q5S007 [G2019S]; details: Compound concentration 1000.0 nM
[39] = molecular target: Cyclin-dependent kinase 13 (Homo sapiens) (UniProt Q14004); details: Compound concentration 1000.0 nM
[40] = molecular target: Ribosomal protein S6 kinase alpha-3 (Homo sapiens) (UniProt P51812); details: Compound concentration 1000.0 nM
[41] = tested on: Proto-oncogene tyrosine-protein kinase receptor Ret (Homo sapiens), P07949 [V804M]; details: Compound concentration 1000.0 nM
[42] = molecular target: Ephrin type-B receptor 2 (Homo sapiens) (UniProt P29323); details: Compound concentration 1000.0 nM
[43] = molecular target: Serine/threonine-protein kinase Nek10 (Homo sapiens) (UniProt Q6ZWH5); details: Compound concentration 1000.0 nM
[44] = molecular target: Phosphatidylinositol 4-phosphate 5-kinase type-1 gamma (Homo sapiens) (UniProt O60331); details: Compound concentration 1000.0 nM
[45] = molecular target: Serine/threonine-protein kinase pim-1 (Homo sapiens) (UniProt P11309); details: Compound concentration 1000.0 nM

Chain of Inhibitor of nuclear factor kappa-B kinase subunit alpha (Homo sapiens) (O15111 whole entry): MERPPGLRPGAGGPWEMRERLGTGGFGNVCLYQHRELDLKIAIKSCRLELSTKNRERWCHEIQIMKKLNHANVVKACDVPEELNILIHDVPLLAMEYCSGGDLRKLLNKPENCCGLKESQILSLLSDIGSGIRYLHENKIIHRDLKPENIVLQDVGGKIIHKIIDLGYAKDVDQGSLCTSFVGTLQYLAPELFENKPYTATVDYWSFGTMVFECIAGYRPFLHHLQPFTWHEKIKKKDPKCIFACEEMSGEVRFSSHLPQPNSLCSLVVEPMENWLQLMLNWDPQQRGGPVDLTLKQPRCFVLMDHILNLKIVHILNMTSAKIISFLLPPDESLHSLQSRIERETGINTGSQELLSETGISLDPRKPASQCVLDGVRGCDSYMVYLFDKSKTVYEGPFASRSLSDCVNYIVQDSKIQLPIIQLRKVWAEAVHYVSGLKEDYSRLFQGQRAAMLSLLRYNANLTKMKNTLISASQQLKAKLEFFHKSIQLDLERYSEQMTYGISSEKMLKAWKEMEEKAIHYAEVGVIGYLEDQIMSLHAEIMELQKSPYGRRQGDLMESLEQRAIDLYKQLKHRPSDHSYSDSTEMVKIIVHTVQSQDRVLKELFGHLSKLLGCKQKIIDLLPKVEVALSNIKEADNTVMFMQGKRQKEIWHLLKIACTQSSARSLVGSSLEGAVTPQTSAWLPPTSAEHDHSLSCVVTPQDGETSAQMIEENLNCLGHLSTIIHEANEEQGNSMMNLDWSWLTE
Chain of Mitogen-activated protein kinase kinase kinase 5 (Homo sapiens) (Q99683 whole entry): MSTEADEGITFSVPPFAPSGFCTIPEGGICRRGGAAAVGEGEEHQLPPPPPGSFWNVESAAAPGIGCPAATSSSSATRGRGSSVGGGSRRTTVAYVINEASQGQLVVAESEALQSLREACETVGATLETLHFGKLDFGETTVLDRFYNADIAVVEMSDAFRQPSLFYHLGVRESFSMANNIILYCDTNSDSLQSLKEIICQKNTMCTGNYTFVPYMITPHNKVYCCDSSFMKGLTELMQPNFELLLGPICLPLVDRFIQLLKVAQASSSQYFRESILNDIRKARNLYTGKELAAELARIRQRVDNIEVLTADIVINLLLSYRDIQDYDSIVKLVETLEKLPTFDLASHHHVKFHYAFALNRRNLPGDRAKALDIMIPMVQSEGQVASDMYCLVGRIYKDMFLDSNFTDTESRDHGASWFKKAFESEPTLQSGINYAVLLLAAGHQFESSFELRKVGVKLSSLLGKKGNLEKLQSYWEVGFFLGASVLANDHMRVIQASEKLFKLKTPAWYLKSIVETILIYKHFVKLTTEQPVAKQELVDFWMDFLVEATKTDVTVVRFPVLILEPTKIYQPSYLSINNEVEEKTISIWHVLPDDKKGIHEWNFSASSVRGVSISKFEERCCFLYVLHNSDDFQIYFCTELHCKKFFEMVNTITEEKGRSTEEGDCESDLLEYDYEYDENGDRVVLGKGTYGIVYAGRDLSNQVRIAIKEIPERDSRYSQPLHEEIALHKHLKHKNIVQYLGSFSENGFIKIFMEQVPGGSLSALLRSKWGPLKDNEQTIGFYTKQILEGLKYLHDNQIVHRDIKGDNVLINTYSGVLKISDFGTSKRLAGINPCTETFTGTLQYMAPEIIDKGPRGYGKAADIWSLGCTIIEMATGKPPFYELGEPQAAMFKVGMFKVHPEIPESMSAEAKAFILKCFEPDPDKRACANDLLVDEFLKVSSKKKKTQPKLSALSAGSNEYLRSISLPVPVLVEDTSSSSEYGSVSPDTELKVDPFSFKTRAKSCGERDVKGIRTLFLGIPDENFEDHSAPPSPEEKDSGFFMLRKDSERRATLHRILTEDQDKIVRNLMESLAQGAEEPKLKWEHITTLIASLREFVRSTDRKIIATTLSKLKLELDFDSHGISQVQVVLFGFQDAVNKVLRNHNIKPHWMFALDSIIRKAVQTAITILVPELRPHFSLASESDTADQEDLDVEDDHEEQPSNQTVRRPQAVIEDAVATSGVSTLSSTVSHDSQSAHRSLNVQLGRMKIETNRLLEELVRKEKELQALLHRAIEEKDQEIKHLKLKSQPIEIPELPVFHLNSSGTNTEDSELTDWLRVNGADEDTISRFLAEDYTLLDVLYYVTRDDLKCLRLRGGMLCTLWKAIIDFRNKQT
Chain of Tyrosine-protein kinase Srms (Homo sapiens) (Q9H3Y6 whole entry): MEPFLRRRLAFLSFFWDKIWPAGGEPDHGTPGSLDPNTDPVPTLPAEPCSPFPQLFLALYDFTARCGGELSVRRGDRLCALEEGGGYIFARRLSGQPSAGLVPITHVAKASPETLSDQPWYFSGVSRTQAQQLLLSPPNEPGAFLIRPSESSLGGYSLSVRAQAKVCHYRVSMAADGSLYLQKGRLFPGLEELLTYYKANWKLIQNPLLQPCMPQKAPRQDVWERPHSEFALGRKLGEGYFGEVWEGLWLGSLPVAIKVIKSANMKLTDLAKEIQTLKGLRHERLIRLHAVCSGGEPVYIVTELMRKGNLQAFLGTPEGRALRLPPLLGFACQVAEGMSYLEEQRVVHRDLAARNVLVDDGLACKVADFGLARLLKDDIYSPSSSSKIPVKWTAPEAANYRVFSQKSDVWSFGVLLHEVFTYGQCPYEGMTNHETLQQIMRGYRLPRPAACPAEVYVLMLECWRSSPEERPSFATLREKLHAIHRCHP
Chain of Cyclin-dependent kinase 11B (Homo sapiens) (P21127 whole entry): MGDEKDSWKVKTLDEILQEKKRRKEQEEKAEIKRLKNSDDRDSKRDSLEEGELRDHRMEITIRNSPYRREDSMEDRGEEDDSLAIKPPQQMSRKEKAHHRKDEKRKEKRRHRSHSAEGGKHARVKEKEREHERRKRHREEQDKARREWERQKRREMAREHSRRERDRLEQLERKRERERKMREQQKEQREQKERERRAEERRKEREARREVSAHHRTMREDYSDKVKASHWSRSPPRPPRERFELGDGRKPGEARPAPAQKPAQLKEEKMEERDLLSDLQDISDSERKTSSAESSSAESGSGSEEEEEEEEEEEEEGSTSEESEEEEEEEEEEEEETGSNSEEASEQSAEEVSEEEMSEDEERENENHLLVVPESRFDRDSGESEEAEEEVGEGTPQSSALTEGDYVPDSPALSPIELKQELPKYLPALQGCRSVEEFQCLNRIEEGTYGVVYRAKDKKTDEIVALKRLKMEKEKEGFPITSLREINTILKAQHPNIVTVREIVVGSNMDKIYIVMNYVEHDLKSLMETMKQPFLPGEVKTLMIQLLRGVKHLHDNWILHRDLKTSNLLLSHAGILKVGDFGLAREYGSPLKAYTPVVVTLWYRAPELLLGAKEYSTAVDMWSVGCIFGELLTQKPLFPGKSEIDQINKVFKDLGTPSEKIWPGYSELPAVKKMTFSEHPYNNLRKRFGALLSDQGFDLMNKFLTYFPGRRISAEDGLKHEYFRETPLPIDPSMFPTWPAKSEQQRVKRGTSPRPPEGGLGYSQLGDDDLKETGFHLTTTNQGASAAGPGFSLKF
Chain of Phosphatidylinositol 4-phosphate 5-kinase type-1 gamma (Homo sapiens) (O60331 whole entry): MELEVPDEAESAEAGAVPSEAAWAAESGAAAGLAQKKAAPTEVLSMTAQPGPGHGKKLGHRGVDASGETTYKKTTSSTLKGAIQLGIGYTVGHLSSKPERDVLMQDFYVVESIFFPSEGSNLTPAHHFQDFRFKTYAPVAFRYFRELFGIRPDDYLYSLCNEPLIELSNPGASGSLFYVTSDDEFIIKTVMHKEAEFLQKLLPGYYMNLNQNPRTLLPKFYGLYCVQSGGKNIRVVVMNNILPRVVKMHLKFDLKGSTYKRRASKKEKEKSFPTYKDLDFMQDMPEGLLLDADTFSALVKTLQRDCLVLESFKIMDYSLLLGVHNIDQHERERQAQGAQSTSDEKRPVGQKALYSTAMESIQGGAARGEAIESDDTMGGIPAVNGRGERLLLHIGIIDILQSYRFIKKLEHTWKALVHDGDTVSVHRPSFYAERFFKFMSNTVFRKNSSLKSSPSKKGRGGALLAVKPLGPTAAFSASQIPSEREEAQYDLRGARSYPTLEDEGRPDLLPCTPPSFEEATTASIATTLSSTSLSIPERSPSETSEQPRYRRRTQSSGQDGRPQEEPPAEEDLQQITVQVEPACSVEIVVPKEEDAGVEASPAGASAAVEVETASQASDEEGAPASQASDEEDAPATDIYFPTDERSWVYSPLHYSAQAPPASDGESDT
Chain of Serine/threonine-protein kinase SIK1 (Homo sapiens) (P57059 whole entry): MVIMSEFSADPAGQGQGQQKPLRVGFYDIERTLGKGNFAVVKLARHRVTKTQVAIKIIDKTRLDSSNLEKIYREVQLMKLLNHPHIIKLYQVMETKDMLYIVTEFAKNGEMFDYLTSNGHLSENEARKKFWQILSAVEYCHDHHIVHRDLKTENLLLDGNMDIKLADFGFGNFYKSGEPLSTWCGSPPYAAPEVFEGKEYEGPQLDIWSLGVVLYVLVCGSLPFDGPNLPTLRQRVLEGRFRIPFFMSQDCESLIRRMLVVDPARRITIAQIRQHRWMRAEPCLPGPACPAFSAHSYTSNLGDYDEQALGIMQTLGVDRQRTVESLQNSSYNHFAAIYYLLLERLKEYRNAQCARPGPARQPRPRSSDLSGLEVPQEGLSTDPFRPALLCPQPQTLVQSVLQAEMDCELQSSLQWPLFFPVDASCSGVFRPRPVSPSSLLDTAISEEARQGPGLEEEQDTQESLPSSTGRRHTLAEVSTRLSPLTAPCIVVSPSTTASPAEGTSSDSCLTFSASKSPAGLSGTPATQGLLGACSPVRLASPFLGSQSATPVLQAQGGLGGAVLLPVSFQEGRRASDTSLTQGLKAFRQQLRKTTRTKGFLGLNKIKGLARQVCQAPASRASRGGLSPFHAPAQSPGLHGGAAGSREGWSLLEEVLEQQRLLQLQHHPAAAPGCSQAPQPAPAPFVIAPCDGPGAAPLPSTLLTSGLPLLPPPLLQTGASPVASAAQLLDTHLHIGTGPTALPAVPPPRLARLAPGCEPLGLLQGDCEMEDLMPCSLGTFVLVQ

O=C(O)[C@@H]1[C@@H](Cn2nnc3ccccc3c2=O)CC[C@H]1C(=O)c1ccc(OCCC2CCOCC2)cc1 [BAY-694]
inactive: residual activity [1] 93% | residual activity [2] 98% | residual activity [3] 99% | residual activity [4] 100% | residual activity [5] 90% | residual activity [6] 100% | residual activity [7] 100% | residual activity [8] 79% | residual activity [9] 93% | residual activity [10] 91% | residual activity [11] 73% | residual activity [12] 96% | residual activity [13] 91% | residual activity [14] 100% | residual activity [15] 100% | residual activity [16] 100% | residual activity [17] 100% | residual activity [18] 94% | residual activity [19] 100% | residual activity [20] 93% | residual activity [21] 100% | inhibition [22] 8.05% | residual activity [23] 100% | residual activity [24] 100% | residual activity [25] 100% | residual activity [26] 91% | residual activity [27] 91% | residual activity [28] 100% | residual activity [29] 100% | residual activity [30] 78% | residual activity [31] 92% | residual activity [32] 73% | inhibition [33] -4.94% | residual activity [34] 100% | inhibition [35] -2.99% | residual activity [36] 80% | residual activity [37] 100% | residual activity [38] 100% | residual activity [39] 92% | residual activity [40] 85% | residual activity [41] 100% | residual activity [42] 100% | residual activity [43] 88% | residual activity [44] 100% | residual activity [45] 100%

O=C(O)[C@H]1[C@H](Cn2nnc3ccccc3c2=O)CC[C@@H]1C(=O)c1ccc(OCCC2CCOCC2)cc1 [BAY-7598]
inactive: residual activity [1] 98% | residual activity [2] 85% | residual activity [3] 88% | residual activity [4] 100% | residual activity [5] 100% | residual activity [6] 100% | residual activity [7] 100% | residual activity [8] 92% | residual activity [9] 100% | residual activity [10] 87% | residual activity [11] 97% | residual activity [12] 93% | residual activity [13] 100% | residual activity [14] 81% | residual activity [15] 61% | residual activity [16] 97% | residual activity [17] 100% | residual activity [18] 95% | residual activity [19] 100% | residual activity [20] 92% | residual activity [21] 100% | inhibition [22] 11.5% | residual activity [23] 90% | residual activity [24] 72% | residual activity [25] 96% | residual activity [26] 100% | residual activity [27] 96% | residual activity [28] 100% | residual activity [29] 100% | residual activity [30] 95% | residual activity [31] 100% | residual activity [32] 85% | inhibition [33] 7.27% | residual activity [34] 100% | inhibition [35] -3.55% | residual activity [36] 75% | residual activity [37] 96% | residual activity [38] 100% | residual activity [39] 93% | residual activity [40] 83% | residual activity [41] 96% | residual activity [42] 100% | residual activity [43] 69% | residual activity [44] 100% | residual activity [45] 95%
